# Earlier results in PubChem BioAssay AID1259409 (Chemical Carcinogenesis Research Information System (CCRIS), 2018).
# Where a SMILES comes first, the peptide text is derived from it.
# System: rodent chemically induced tumor inhibition, incidence and multiplicity
# Assay: CCRIS tumor inhibitor studies
smiles,measurement,setting,value
C[N+](C)(C)CC(=O)O,"tumour outcome (control, treated, inhibition, significance)","Carcinogen: ETHIONINE, 13073-35-3, Dose [Inhibitor]: 5.2 MMOL/100 G DIET DAILY FOR 8 MO ADMINISTERED SIMULTANEOUSLY WITH CARCINOGEN FOLLOWED BY 4 MO ON BASAL DIET (STUDY DUR, Route [Inhibitor]: ORAL, Species: RAT, Strain/Sex: WISTAR/MALE, Target Tissue: Type of Lesion: LIVER: CARCINOMA, Dose [Carcinogen]: 0.25% OF DIET DAILY FOR 8 MO, Promoter: NONE USED","8/8 (100%), 1/10 (10%), 90%, not calculated"
Cc1c(C)c2c(c(C)c1O)CCC(C)(CCCC(C)CCCC(C)CCCC(C)C)O2 (stereo not drawn),"tumour outcome (control, treated, inhibition, significance)","Carcinogen: N-NITROSOMETHYLBENZYLAMINE, 937-40-6, Dose [Inhibitor]: 30, 172 MG/KG IN DIET BEGINNING POST CARCINOGEN TREATMENT AND CONTINUING FOR 22 WK (STUDY DURATION: 25 WK), Route [Inhibitor]: ORAL, Species: MOUSE, Strain/Sex: C57BL/FEMALE, Target Tissue: Type of Lesion: ESOPHAGUS: TUMOR, Dose [Carcinogen]: 0.2 MG/KG IN CORN OIL 3/WK FOR 3 WK, Promoter: ETHANOL, 64-17-5","10/17 (59%), 6/16 (38%), 36%, not calculated"
same,"tumour outcome (control, treated, inhibition, significance)","Carcinogen: N-NITROSOMETHYLBENZYLAMINE, 937-40-6, Dose [Inhibitor]: 30, 172 MG/KG IN DIET BEGINNING POST CARCINOGEN TREATMENT AND CONTINUING FOR 22 WK (STUDY DURATION: 25 WK), Route [Inhibitor]: ORAL, Species: MOUSE, Strain/Sex: C57BL/FEMALE, Target Tissue: Type of Lesion: ESOPHAGUS: TUMOR, Dose [Carcinogen]: 0.2 MG/KG IN CORN OIL 3/WK FOR 3 WK, Promoter: NONE USED","6/15 (40%), 3/15 (20%), 50%, not calculated"
same,"tumour outcome (control, treated, inhibition, significance)","Carcinogen: UVB IRRADIATION, Dose [Inhibitor]: 0, 25 MG IN 200 µL ACETONE 3/WK FOR DURATION OF STUDY BEGINNING 3 WK PRIOR TO IRRADIATION (STUDY DURATION: 33 WK), Route [Inhibitor]: DERMAL, Species: MOUSE, Strain/Sex: C3H/HEN/FEMALE, Target Tissue: Type of Lesion: SKIN: TUMOR, Dose [Carcinogen]: 6 J/M2/SEC 30 MIN/D, 5 D/WK FOR 27 WK, Promoter: NONE USED","81%, 42%, 48%, p=0.0065"
CC1=C(/C=C/C(C)=C/C=C/C(C)=C/C(=O)NCC(C)O)C(C)(C)CCC1 (stereo not drawn),"tumour outcome (control, treated, inhibition, significance)","Carcinogen: N-BUTYL-N-(4-HYDROXYBUTYL)NITROSAMINE, 3817-11-6, Dose [Inhibitor]: 1.5 MMOL/KG DIET DAILY FOR 108 D STARTING ONE WK AFTER THE FINAL CARCINOGEN DOSE (STUDY DURATION: 171 D), Route [Inhibitor]: ORAL, Species: MOUSE, Strain/Sex: BDF/MALE, Target Tissue: Type of Lesion: URINARY BLADDER: TRANSITIONAL CELL CARCINOMA, Dose [Carcinogen]: 5 MG, 2/WK FOR 9 WK, Promoter: NONE USED","31/55 (56%), 20/55 (36%), 36%, p<0.05"
same,"tumour outcome (control, treated, inhibition, significance)","Carcinogen: N-BUTYL-N-(4-HYDROXYBUTYL)NITROSAMINE, 3817-11-6, Dose [Inhibitor]: 1.5 MMOL/KG/D IN DIET FOR 108 D STARTING 1 WK POST CARCINOGEN TREATMENT (STUDY DURATION: 171 D), Route [Inhibitor]: ORAL, Species: MOUSE, Strain/Sex: BDF/MALE, Target Tissue: Type of Lesion: URINARY BLADDER: TRANSITIONAL CELL CARCINOMA, Dose [Carcinogen]: 5 MG 2/WK FOR 9 WK, Promoter: NONE USED","31/55 (56%), 20/55 (36%), 36%, p<0.05"
same,"tumour outcome (control, treated, inhibition, significance)","Carcinogen: N-NITROSOBIS(2-OXOPROPYL)AMINE, 60599-38-4, Dose [Inhibitor]: 0.25 MMOL/KG OF DIET FOR 364 D STARTING 2 WK AFTER LAST CARCINOGEN DOSE (STUDY DURATION: 55 WK), Route [Inhibitor]: ORAL, Species: HAMSTER, Strain/Sex: SYRIAN/FEMALE, Target Tissue: Type of Lesion: LIVER: CARCINOMA, Dose [Carcinogen]: 20 MG/KG INJECTION GIVEN TWICE 1 WK APART, Promoter: NONE USED","5%, 19%, -280%, not calculated"
same,"tumour outcome (control, treated, inhibition, significance)","Carcinogen: N-NITROSOBIS(2-OXOPROPYL)AMINE, 60599-38-4, Dose [Inhibitor]: 0.25 MMOL/KG OF DIET FOR 364 D STARTING 2 WK AFTER LAST CARCINOGEN DOSE (STUDY DURATION: 55 WK), Route [Inhibitor]: ORAL, Species: HAMSTER, Strain/Sex: SYRIAN/FEMALE, Target Tissue: Type of Lesion: PANCREAS: CARCINOMA, Dose [Carcinogen]: 20 MG/KG INJECTION GIVEN TWICE 1 WK APART, Promoter: NONE USED","38%, 15%, 61%, not calculated"
same,"tumour outcome (control, treated, inhibition, significance)","Carcinogen: N-NITROSOBIS(2-OXOPROPYL)AMINE, 60599-38-4, Dose [Inhibitor]: 0.25 MMOL/KG OF DIET FOR 364 D STARTING 2 WK AFTER LAST CARCINOGEN DOSE (STUDY DURATION: 55 WK), Route [Inhibitor]: ORAL, Species: HAMSTER, Strain/Sex: SYRIAN/MALE, Target Tissue: Type of Lesion: LIVER: CARCINOMA, Dose [Carcinogen]: 20 MG/KG INJECTION GIVEN TWICE 1 WK APART, Promoter: NONE USED","7%, 32%, -357%, not calculated"
same,"tumour outcome (control, treated, inhibition, significance)","Carcinogen: N-NITROSOBIS(2-OXOPROPYL)AMINE, 60599-38-4, Dose [Inhibitor]: 0.25 MMOL/KG OF DIET FOR 364 D STARTING 2 WK AFTER LAST CARCINOGEN DOSE (STUDY DURATION: 55 WK), Route [Inhibitor]: ORAL, Species: HAMSTER, Strain/Sex: SYRIAN/MALE, Target Tissue: Type of Lesion: PANCREAS: CARCINOMA, Dose [Carcinogen]: 20 MG/KG INJECTION GIVEN TWICE 1 WK APART, Promoter: NONE USED","34%, 24%, 29%, not calculated"
same,"tumour outcome (control, treated, inhibition, significance)","Carcinogen: N-NITROSOBIS(2-OXOPROPYL)AMINE, 60599-38-4, Dose [Inhibitor]: 0.5 MMOL/KG DIET FOR 357 D STARTING 2 WK AFTER LAST CARCINOGEN DOSE AND INTERRUPTED BY A 1 WK REST PERIOD OF VEHICLE ONL, Route [Inhibitor]: ORAL, Species: HAMSTER, Strain/Sex: SYRIAN/FEMALE, Target Tissue: Type of Lesion: LIVER: HEPATOCELLULAR CARCINOMA, Dose [Carcinogen]: 20 MG/KG INJECTION GIVEN TWICE 1 WK APART, Promoter: NONE USED","5%, 12%, -140%, not calculated"
same,"tumour outcome (control, treated, inhibition, significance)","Carcinogen: N-NITROSOBIS(2-OXOPROPYL)AMINE, 60599-38-4, Dose [Inhibitor]: 0.5 MMOL/KG DIET FOR 357 D STARTING 2 WK AFTER LAST CARCINOGEN DOSE AND INTERRUPTED BY A 1 WK REST PERIOD OF VEHICLE ONL, Route [Inhibitor]: ORAL, Species: HAMSTER, Strain/Sex: SYRIAN/FEMALE, Target Tissue: Type of Lesion: PANCREAS: CARCINOMA, Dose [Carcinogen]: 20 MG/KG INJECTION GIVEN TWICE 1 WK APART, Promoter: NONE USED","38%, 25%, 34%, not calculated"
same,"tumour outcome (control, treated, inhibition, significance)","Carcinogen: N-NITROSOBIS(2-OXOPROPYL)AMINE, 60599-38-4, Dose [Inhibitor]: 0.5 MMOL/KG DIET FOR 357 D STARTING 2 WK AFTER LAST CARCINOGEN DOSE AND INTERRUPTED BY A 1 WK REST PERIOD OF VEHICLE ONL, Route [Inhibitor]: ORAL, Species: HAMSTER, Strain/Sex: SYRIAN/MALE, Target Tissue: Type of Lesion: LIVER: HEPATOCELLULAR CARCINOMA, Dose [Carcinogen]: 20 MG/KG INJECTION GIVEN TWICE 1 WK APART, Promoter: NONE USED","7%, 12%, -71%, not calculated"
same,"tumour outcome (control, treated, inhibition, significance)","Carcinogen: N-NITROSOBIS(2-OXOPROPYL)AMINE, 60599-38-4, Dose [Inhibitor]: 0.5 MMOL/KG DIET FOR 357 D STARTING 2 WK AFTER LAST CARCINOGEN DOSE AND INTERRUPTED BY A 1 WK REST PERIOD OF VEHICLE ONL, Route [Inhibitor]: ORAL, Species: HAMSTER, Strain/Sex: SYRIAN/MALE, Target Tissue: Type of Lesion: PANCREAS: CARCINOMA, Dose [Carcinogen]: 20 MG/KG INJECTION GIVEN TWICE 1 WK APART, Promoter: NONE USED","34%, 29%, 15%, not calculated"
C[C@@]12C[C@@]3(O)O[C@@H](O1)[C@]1(COC(=O)c4ccccc4)[C@H]3C[C@@]12O[C@@H]1O[C@H](CO)[C@@H](O)[C@H](O)[C@H]1O,"tumour outcome (control, treated, inhibition, significance)","Carcinogen: AZOXYMETHANE, 25843-45-2, Dose [Inhibitor]: 0, 0.02% IN DIET IN WK 1-3 OF STUDY FOLLOWED BY BASAL DIET FOR DURATION OF STUDY (STUDY DURATION: 1 YR), Route [Inhibitor]: ORAL, Species: RAT, Strain/Sex: F344/MALE, Target Tissue: Type of Lesion: LARGE INTESTINE: ADENOCARCINOMA, Dose [Carcinogen]: 15 MG/KG BW 1/WK IN WK 1 AND 2 OF STUDY, Promoter: NONE USED","13/27 (48%), 5/28 (18%), 63%, not significant"
same,"tumour outcome (control, treated, inhibition, significance)","Carcinogen: AZOXYMETHANE, 25843-45-2, Dose [Inhibitor]: 0, 0.02% IN DIET IN WK 1-3 OF STUDY FOLLOWED BY BASAL DIET FOR DURATION OF STUDY (STUDY DURATION: 1 YR), Route [Inhibitor]: ORAL, Species: RAT, Strain/Sex: F344/MALE, Target Tissue: Type of Lesion: LARGE INTESTINE: ADENOMA, Dose [Carcinogen]: 15 MG/KG BW 1/WK IN WK 1 AND 2 OF STUDY, Promoter: NONE USED","6/27 (22%), 9/28 (32%), -45%, not significant"
O=c1oc2ccccc2c(O)c1Cc1c(O)c2ccccc2oc1=O,"tumour outcome (control, treated, inhibition, significance)","Carcinogen: 17BETA-ESTRADIOL, 50-28-2, Dose [Inhibitor]: 0, 0.09% IN DIET BEGINNING 5 D POST CARCINOGEN DOSE (STUDY DURATION: 7.5 MO), Route [Inhibitor]: ORAL, Species: HAMSTER, Strain/Sex: SYRIAN/MALE, Target Tissue: Type of Lesion: KIDNEY: TUMOR, Dose [Carcinogen]: 25 MG PELLET REPLACED WITH A SECOND PELLET AFTER 4 MO, Promoter: NONE USED","13/13 (100%), 7/12 (58%), 42%, p<0.05"
N[C@@H](CCC(=O)O)C(=O)N[C@@H](Cc1c[nH]c2ccccc12)C(=O)O (H-Glu-Trp-OH),"tumour outcome (control, treated, inhibition, significance)","Carcinogen: NONE, Dose [Inhibitor]: 5 UG 1X/D 5 D/WK FOR 12 MONTHS (STUDY DURATION: 1200 D), Route [Inhibitor]: SUBCUTANEOUS, Species: RAT, Strain/Sex: LIO/FEMALE, Target Tissue: Type of Lesion: TUMORS","12/31 (38.7%), 10/40 (25.0%), 35%, not significant"
